≈ marks a conversion by molar mass, not a printed value. *1 amine or outer side, *2 acyl side, *3 side chain or, on linkers, in order; H or OH if unused. Where a SMILES comes first, the peptide text is derived from it. [ ]: non-standard residue; d: D form. The star is where a group is joined. boroAla((+)-pinanediol) = C[C@H](N*)B1O[C@@H]2C[C@@H]3C[C@@H](C3(C)C)[C@]2(C)O1; Biphenylcarbonyl(4'-Bu) = CCCCc1ccc(-c2ccc(C(=O)*)cc2)cc1; X5 = C[C@H](N*)B1OC2C[C@@H]3C[C@@H](C3(C)C)[C@]2(C)O1; Benzoyl(4-(4-Cl-Ph)) = O=C(c1ccc(-c2ccc(Cl)cc2)cc1)*; X16 = O=S(=O)(c1ccc(-c2ccc(Cl)cc2)cc1)*; X11 = CCCCc1ccc(-c2nc(C(=O)*)cs2)cc1; X10 = O=C(c1ccc(-c2ccc(Cl)cc2)nc1)*; X14 = O=C(c1ccc(Oc2ccc(Cl)cc2)cc1)*; X3 = CCCCc1ccc(C2CCN(*)CC2)cc1; aThr = C[C@H](O)[C@H](N)C(=O)O; X9 = CC1(c2ccccc2)CCN(*)CC1; Decanoyl = CCCCCCCCCC(=O)*; X4 = c1ccc(C2CCN(*)CC2)cc1; X6 = NCCCCCCCCCCCCCCC(=O)*; boroAla = C[C@H](N*)B(O)O; X8 = NCCCCCCCCCCCCC(=O)*; Dab = NCC[C@H](N)C(=O)O; Dap = NC[C@H](N)C(=O)O; CO = O=C([*:1])[*:2]; CF3 = FC(F)(F)*; Sar = CNCC(=O)O; CH2Cl = ClC*
Tests used:
E. coli SPase = target: T1, E. coli SPase (Escherichia coli, UniProt P00803); test: Biochemical SPase activity assay, fluorogenic peptide substrate, E. coli enzyme; settings: 20 μM substrate, 10 minutes preincubation, read-out: IC 50 (nM) E. coli
T1 construct: Full length His-tagged E. coli SPase proteins; His; made in house; host or cells: E. coli BL21(DE3)
Description: Full length His-tagged E. coli SPase proteins were expressed in E. coli BL21(DE3) containing the plasmid pET23-lepB. Briefly, saturated overnight cultures grown in 20 ml of Luria-Bertani medium supplemented with ampicillin were subcultures into 1.5 L of Luria-Bertani, and shaken at 37° C. until an optical density at 600 nm of 0.4-0.5 was achieved.
(§1) Signal peptidase enzyme activity of the above proteins was measured using two fluorogenic peptide substrates (decanoyl-LSSPAYNO2A ? ADKabzPD and decanoyl-LTPTAYNO2A ? ASKKabzDD), where abz is the fluorescence donor 2-aminobenzamide, YNO2 is the fluorescence acceptor 3-nitrotyrosine, and the cleavage site is indicated with an arrow. Enzyme mix solution was prepared by diluting 2.5 nM of Escherichia coli or Staphylococcus aureus SPase protein into reaction buffers consisting of 20 mM PO4 pH 7.4, 100 mM NaCl, and 1% Elugent™ or octyl phenoxypolyethoxylethanol detergent at a concentration of 0.25% or 0.0625%. Reactions were initiated by the addition of substrate to a final concentration of 20 μM. Reaction progress was monitored by measuring the increase in fluorescence signal (excitation at 314 nm, emission at 416 nm) using a SpectraMax M2 fluorescence microplate reader. To determine IC50 values of test compounds, compound stock solutions were prepared in DMSO at a concentration of 1 mM. Three-folder serial dilutions of test compounds, starting at 10 μM, were prepared in enzyme mix solution and incubated at room temperature for 10 minutes. Following this incubation, fluorogenic substrate was added to a final concentration of 20 μM and the increase in fluorescence, corresponding to substrate cleavage, was monitored continuously at room temperature for 1 hour. Initial reaction rates were calculated based on the rate of increase in fluorescence during the reaction. Reaction rates were plotted as a function of compound concentration, and IC50 values are determined nonlinear regression analysis (SoftMaxPro 5.4, Molecular Devices™) of the sigmoidal dose-response curve.

[1] = system: Escherichia coli strain MC4100 IMP-4213, which harbors an LptD mutation; settings: E. coli MC4100 IMP-4213; 35° C., 22 hours
How it was run: (§2)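 CLSI broth microdilution in cation-adjusted Mueller Hinton Broth with 0.002% Tween-80, two-fold dilutions starting at 64 μg/ml.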

[2] = system: methicillin resistant Staphylococcus aureus (MRSA) strain USA300 (NRS384); settings: MRSA USA300 (NRS384); 35° C., 22 hours
How it was run: as §2

S. aureus SPase = S. aureus SPase (Staphylococcus aureus, UniProt P0A070); test: biochemical; settings: IC 50 (nM) S. aureus, 20 μM substrate, 10 minutes preincubation
Description: Full length His-tagged S. aureus SPase protein was expressed similarly from E. coli BL21(DE3) containing the plasmid pCDF1-SaSpsB and purified similarly to the E. coli protein with the following exceptions. SPase protein was solubilized using 300 mM NaCl, 20 mM Tris pH 8.06, 5 mM Imidazole, 10% glycerol, 1% Triton X-100, prior to purification in Ni-NTA Superflow resin and resin bound protein was washed in a similar buffer containing 1% Elugent in place of Triton X-100 prior to protein eluted in wash buffer supplemented with 300 mM imidazole. […] All protein concentrations were determined by BCA assay.
as §1

T1 sequence (P00803 whole entry): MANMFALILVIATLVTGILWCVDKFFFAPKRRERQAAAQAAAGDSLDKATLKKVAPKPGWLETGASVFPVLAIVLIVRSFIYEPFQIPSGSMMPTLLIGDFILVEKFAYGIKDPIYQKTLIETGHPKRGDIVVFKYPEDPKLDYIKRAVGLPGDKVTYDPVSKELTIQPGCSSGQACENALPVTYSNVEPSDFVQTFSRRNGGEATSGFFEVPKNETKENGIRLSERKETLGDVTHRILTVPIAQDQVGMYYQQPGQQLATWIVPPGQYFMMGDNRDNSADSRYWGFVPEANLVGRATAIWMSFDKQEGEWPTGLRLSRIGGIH
Sequence of S. aureus SPase (P0A070 whole entry): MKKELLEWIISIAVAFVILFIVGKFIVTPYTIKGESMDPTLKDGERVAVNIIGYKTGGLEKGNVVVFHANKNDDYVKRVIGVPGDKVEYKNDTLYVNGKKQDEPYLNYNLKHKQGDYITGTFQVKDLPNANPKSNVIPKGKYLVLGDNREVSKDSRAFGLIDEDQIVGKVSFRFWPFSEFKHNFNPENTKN

Row | Structure (SMILES) | IC50 (E. coli SPase) [nM] | MIC (μg/mL) E. coli [1] [µg/mL] | MIC (μg/mL) S. aureus [2] [µg/mL] | IC50 (S. aureus SPase) [nM]
1 | C[C@H](NC(=O)[C@H](CCCCN)NC(=O)[C@H](C)NC(=O)[C@@H](NC(=O)[C@H](CCN)NC(=O)CCCCCCCCCCCCN)[C@@H](C)O)B1O[C@@H]2C[C@@H]3C[C@@H](C3(C)C)[C@]2(C)O1 [Compound 115] (X8-[Dab]TAK-{boroAla((+)-pinanediol)}) | 330 | >64 | 11 (≈ 13.2 µM) | 590
2 | C[C@H](NC(=O)[C@H](CCCCN)NC(=O)[C@H](C)NC(=O)[C@@H](NC(=O)[C@H](CCN)NC(=O)CCCCCCCCCCCCCCN)[C@@H](C)O)B1O[C@@H]2C[C@@H]3C[C@@H](C3(C)C)[C@]2(C)O1 [Compound 116] (X6-[Dab]TAK-{boroAla((+)-pinanediol)}) | 200 | 32 (≈ 37.1 µM) | 1.4 (≈ 1.62 µM) | 480
3 | CCCCCCCCCC(=O)N[C@@H](CCN)C(=O)N[C@H](C(=O)N[C@@H](C)C(=O)N[C@@H](CCCCN)C(=O)N[C@@H](C)B1O[C@@H]2C[C@@H]3C[C@@H](C3(C)C)[C@]2(C)O1)[C@@H](C)O [Compound 117] (Decanoyl-[Dab]TAK-{boroAla((+)-pinanediol)}) | 20 | 8 (≈ 10.3 µM) | 2 (≈ 2.57 µM) | 150
4 | C[C@H](NC(=O)[C@H](CCCCN)NC(=O)[C@H](C)NC(=O)[C@@H](NC(=O)[C@H](CCN)NC(=O)c1ccc(-c2ccc(Cl)cc2)nc1)[C@@H](C)O)B1O[C@@H]2C[C@@H]3C[C@@H](C3(C)C)[C@]2(C)O1 [Compound 118] (X10-[Dab]TAK-{boroAla((+)-pinanediol)}) | 15 | 8 (≈ 9.53 µM) | 2 (≈ 2.38 µM) | 70
5 | C[C@H](NC(=O)[C@H](CCCCN)NC(=O)[C@H](C)NC(=O)[C@@H](NC(=O)[C@H](CCN)NC(=O)c1ccc(-c2ccc(Cl)cc2)cc1)[C@@H](C)O)B(O)O [Compound 119] ({Benzoyl(4-(4-Cl-Ph))}-[Dab]TAK-boroAla) | 10 | 2 (≈ 2.84 µM) | 1 (≈ 1.42 µM) | 120
6 | CCCCCCCCCC(=O)N[C@@H](CCN)C(=O)N[C@H](C(=O)N[C@@H](C)C(=O)N[C@@H](CCCCN)C(=O)N[C@@H](C)B(O)O)[C@@H](C)O [Compound 120] (Decanoyl-[Dab]TAK-boroAla) | 21 | 11 (≈ 17.1 µM) | 2.8 (≈ 4.35 µM) | 120
7 | CCCCc1ccc(-c2nc(C(=O)N[C@@H](CCN)C(=O)N[C@H](C(=O)N[C@@H](C)C(=O)N[C@@H](CCCCN)C(=O)N[C@@H](C)B3O[C@@H]4C[C@@H]5C[C@@H](C5(C)C)[C@]4(C)O3)[C@@H](C)O)cs2)cc1 [Compound 121] (X11-[Dab]TAK-{boroAla((+)-pinanediol)}) | 54 | 1.3 (≈ 1.5 µM) | 0.4 (≈ 0.461 µM) | 280
8 | CCCCc1ccc(-c2ccc(C(=O)N[C@@H](CCN)C(=O)N[C@@H](CCC(N)=O)C(=O)N[C@@H](C)C(=O)N[C@@H](CCCCN)C(=O)N[C@@H](C)B3OC4C[C@@H]5C[C@@H](C5(C)C)[C@]4(C)O3)cc2)cc1 (stereo partly drawn) [Compound 122] ({Biphenylcarbonyl(4'-Bu)}-[Dab]QAK-X5) | 20 | 0.2 (≈ 0.225 µM) | 0.4 (≈ 0.451 µM) | 240
9 | CCCCCCCCCCCCCC(=O)N[C@@H](CCCCN)C(=O)N[C@@H](C)C(=O)N[C@@H](CCCCN)C(=O)N[C@@H](C)B1O[C@@H]2C[C@@H]3C[C@@H](C3(C)C)[C@]2(C)O1 [Compound 123] | 11000 | 4 (≈ 5.26 µM) | 2 (≈ 2.63 µM) | 7800
10 | CCCCc1ccc(-c2ccc(C(=O)N[C@@H](CCN)C(=O)N(C)CC(=O)N[C@@H](C)C(=O)N[C@@H](CCCCN)C(=O)N[C@@H](C)B3O[C@@H]4C[C@@H]5C[C@@H](C5(C)C)[C@]4(C)O3)cc2)cc1 [Compound 124] ({Biphenylcarbonyl(4'-Bu)}-[Dab][Sar]AK-{boroAla((+)-pinanediol)}) | 110 | 0.6 (≈ 0.723 µM) | 0.8 (≈ 0.964 µM) | 2000
11 | CCCCc1ccc(-c2ccc(C(=O)N[C@@H](CCN)C(=O)N[C@H](C(=O)N[C@@H](C)C(=O)N[C@@H](CCCCN)C(=O)N[C@@H](C)B3O[C@@H]4C[C@@H]5C[C@@H](C5(C)C)[C@]4(C)O3)[C@H](C)O)cc2)cc1 [Compound 125] ({Biphenylcarbonyl(4'-Bu)}-[Dab][aThr]AK-{boroAla((+)-pinanediol)}) | 10 | 0.4 (≈ 0.465 µM) | 0.4 (≈ 0.465 µM) | 280
12 | C[C@H](NC(=O)[C@H](CCCCN)NC(=O)[C@H](C)NC(=O)[C@@H](NC(=O)[C@H](CCCCN)NC(=O)N1CCC(c2ccccc2)CC1)[C@@H](C)O)B1O[C@@H]2C[C@@H]3C[C@@H](C3(C)C)[C@]2(C)O1 [Compound 126] ({X4-CO}-KTAK-{boroAla((+)-pinanediol)}) | 230 | >64 | 64 (≈ 76.3 µM) | 250
13 | CCCCc1ccc(C2CCN(C(=O)N[C@@H](CCCCN)C(=O)N[C@H](C(=O)N[C@@H](C)C(=O)N[C@@H](CCCCN)C(=O)N[C@@H](C)B3O[C@@H]4C[C@@H]5C[C@@H](C5(C)C)[C@]4(C)O3)[C@@H](C)O)CC2)cc1 [Compound 127] ({X3-CO}-KTAK-{boroAla((+)-pinanediol)}) | 64 | 32 (≈ 35.8 µM) | 2 (≈ 2.23 µM) | 210
14 | C[C@H](NC(=O)[C@H](CCCCN)NC(=O)[C@H](C)NC(=O)[C@@H](NC(=O)[C@H](CCCCN)NS(=O)(=O)c1ccc(-c2ccc(Cl)cc2)cc1)[C@@H](C)O)B1O[C@@H]2C[C@@H]3C[C@@H](C3(C)C)[C@]2(C)O1 [Compound 128] (X16-KTAK-{boroAla((+)-pinanediol)}) | 1200 | 64 (≈ 70.9 µM) | 2 (≈ 2.22 µM) | 75
15 | C[C@H](NC(=O)[C@H](CCCCN)NC(=O)[C@H](C)NC(=O)[C@@H](NC(=O)[C@H](CN)NC(=O)c1ccc(Oc2ccc(Cl)cc2)cc1)[C@@H](C)O)B1O[C@@H]2C[C@@H]3C[C@@H](C3(C)C)[C@]2(C)O1 [Compound 129] (X14-[Dap]TAK-{boroAla((+)-pinanediol)}) | 3.6 | 4 (≈ 4.76 µM) | 2.8 (≈ 3.33 µM) | 120
16 | C[C@H](NC(=O)[C@H](CCCCN)NC(=O)[C@H](C)NC(=O)[C@@H](NC(=O)[C@H](CCCCN)NC(=O)N1CCC(C)(c2ccccc2)CC1)[C@@H](C)O)B1O[C@@H]2C[C@@H]3C[C@@H](C3(C)C)[C@]2(C)O1 [Compound 130] ({X9-CO}-KTAK-{boroAla((+)-pinanediol)}) | 270 | >64 | 64 (≈ 75 µM) | 280
17 | CCCCc1ccc(-c2ccc(C(=O)N[C@@H](CCN)C(=O)N[C@H](C(=O)N[C@@H](C)C(=O)N[C@@H](CCCCN)C(=O)N[C@@H](C)C(=O)C(F)(F)F)[C@@H](C)O)cc2)cc1 [Compound 210] ({Biphenylcarbonyl(4'-Bu)}-[Dab]TAKA-CF3) | 260 | 4 (≈ 5.14 µM) | 11 (≈ 14.1 µM) | 2300
18 | CCCCc1ccc(-c2ccc(C(=O)N[C@@H](CCN)C(=O)N[C@H](C(=O)N[C@@H](C)C(=O)N[C@@H](CCCCN)C(=O)N[C@@H](C)C(=O)CCl)[C@@H](C)O)cc2)cc1 [Compound 211] ({Biphenylcarbonyl(4'-Bu)}-[Dab]TAKA-CH2Cl) | 380 | 16 (≈ 21.1 µM) | 4 (≈ 5.27 µM) | 390

From patent US20160194358A1, “LINEAR PEPTIDE ANTIBIOTCS” (priority 2013, published 2016)
